Reference: ChEMBL document CHEMBL1132033, “Stabilization of microtubules by Combretastatin D derivatives” (Bioorg Med Chem Lett, 1999)

How the values were obtained:
1A9 = experiment: Inhibitory activity against Taxol resistant 1A9 cell lines; type: functional, cell-based; details: Homo sapiens
1A9/ptx-10 = experiment: Inhibitory activity against Taxol resistant PTX10 cell lines; type: functional, cell-based; details: Homo sapiens
1A9/ptx-22 = experiment: Inhibitory activity against Taxol resistant PTX22 cell lines; type: functional, cell-based; details: Homo sapiens
[1] = target: Tubulin alpha chain (Sus scrofa) (UniProt P02550); experiment: Inhibitory activity against tubulin polymerization at 0.25 mM concentration; type: functional
[2] = target: Tubulin alpha chain (Sus scrofa) (UniProt P02550); experiment: Inhibitory activity against tubulin polymerization at 0.5 mM concentration; type: functional
[3] = target: Tubulin alpha chain (Sus scrofa) (UniProt P02550); experiment: Inhibitory activity against tubulin polymerization at 1.0 mM concentration; type: functional
[4] = target: Tubulin alpha chain (Sus scrofa) (UniProt P02550); experiment: Inhibitory activity against tubulin polymerization at 2.0 mM concentration; type: functional

Sequence of Tubulin alpha chain (Sus scrofa) (P02550 whole entry, looked up): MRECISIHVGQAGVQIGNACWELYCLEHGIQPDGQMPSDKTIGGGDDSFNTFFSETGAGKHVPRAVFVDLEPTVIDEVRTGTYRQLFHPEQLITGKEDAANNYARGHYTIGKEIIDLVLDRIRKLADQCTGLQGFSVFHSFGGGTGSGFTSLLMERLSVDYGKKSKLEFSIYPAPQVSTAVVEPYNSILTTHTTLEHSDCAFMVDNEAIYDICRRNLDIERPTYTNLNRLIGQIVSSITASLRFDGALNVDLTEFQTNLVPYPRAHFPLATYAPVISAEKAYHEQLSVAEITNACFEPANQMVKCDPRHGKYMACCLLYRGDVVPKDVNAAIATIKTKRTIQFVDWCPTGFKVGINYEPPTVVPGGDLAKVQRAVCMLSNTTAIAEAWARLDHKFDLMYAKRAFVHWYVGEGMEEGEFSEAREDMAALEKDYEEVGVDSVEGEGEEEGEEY

Row | SMILES | IC50 (1A9) [nM] | IC50 (1A9/ptx-10) [nM] | IC50 (1A9/ptx-22) [nM] | inhibition [1] [%] | inhibition [2] [%] | inhibition [3] [%] | inhibition [4] [%]
1 | COc1ccc2cc1Oc1ccc(cc1)CC(O)COC(=O)CC2 (configuration not stated) | > 2500 | > 2500 | > 2500 | 27 | 47 | 62 | 76
2 | COc1cc2c(c(OC)c1OC)-c1ccc(OC)c(=O)cc1[C@@H](NC(C)=O)CC2 [COLCHICINE] | > 2500 | > 2500 | > 2500 | 4 | 3 | 4 | 0
3 | COc1c(Br)cc2cc1Oc1ccc(cc1)CC(O)COC(=O)CC2 (configuration not stated) | > 2500 | > 2500 | > 2500 | 3 | 21 | 39 | 67
4 | COc1ccc2cc1Oc1ccc(cc1)C1OC1COC(=O)CC2 (configuration not stated) | > 2500 | > 2500 | > 2500 | 0 | 20 | 27 | 39
5 | COc1ccc2cc1Oc1ccc(cc1)CC(I)COC(=O)CC2 (configuration not stated) | > 2500 | > 2500 | > 2500 | 5 | 28 | 35 | 54
6 | COc1ccc2cc1Oc1ccc(cc1)/C=C\COC(=O)CC2 | > 2500 | > 2500 | > 2500 | 16 | 19 | 27 | 35
